Like-named read-outs stand apart in the source and are kept apart here. Positions of bridges follow the written chain, without caps; N, C: chain ends. Non-standard residues stand in square brackets, D forms with d. Residues, ends and D or L forms follow the SMILES beside them. R8 = C=CCCCCCC[C@@](C)(N)C(=O)O; S5 = C=CCCC[C@](C)(N)C(=O)O
Tests used:
[1] = system: hDM2-overexpressing SJSA-1 cells; format: cell-based
Description: SJSA-1 cells were seeded into a 96-well plate (2,000 cells/well) and incubated overnight at 37° C. After washing twice in PBS, cells are incubated with peptide or Nutlin-3a (Santa Cruz Biotechnology, Santa Cruz, Calif.) in Opti-MEM (Invitrogen, Carlsbad, Calif.) for 24 hours. Cell viability was then assayed using CellTiter-Glo (Promega, Madison, Wis.) according to the manufacturer's protocol. Luminescence measurements were taken on a SpectraMax M5 plate reader (Molecular Devices, Sunnyvale, Calif.).
Previously it has been shown that the efficacy with which hydrocarbon-stapled peptides reach the cytosol correlates with their efficacy in cell-based assays (LaRochelle et al., J. Am. Chem. Soc., 2015, 137, 2536-2541). To examine whether the biological activity of these penta-arg peptides correlated with how efficiently they accessed the cytosol, cell viability assays were performed using N-acetylated versions of the peptides and hDM2-overexpressing SJSA-1 cells (FIG. 4 and FIG. 5).

[2] = system: hDM2-overexpressing SJSA-1 cells; settings: literature values (Bernal et al. 2007; 2010); read-out: previously reported EC50, SJSA-1 cell viability; cited from earlier work
HeLa cells = settings: cited from earlier work

Compound | EC50 ([1]; 24 h) [µM] | other results
CC(=O)N[C@@H](CCCNC(=N)N)C(=O)N[C@@H](CO)C(=O)N[C@@H](CCC(N)=O)C(=O)N[C@@H](CCC(=O)O)C(=O)N[C@@H](CCCNC(=N)N)C(=O)N[C@@H](Cc1ccccc1)C(=O)N[C@]1(C)CCCCCCC=CCCC[C@@](C)(C(=O)N[C@@H](CCCNC(=N)N)C(=O)N[C@@H](CCCNC(=N)N)C(N)=O)NC(=O)[C@H](CC(C)C)NC(=O)[C@H](CCCNC(=N)N)NC(=O)[C@H](CCCCN)NC(=O)[C@H](Cc2c[nH]c3ccccc23)NC(=O)[C@H](CC(C)C)NC(=O)[C@H](CC(=O)O)NC1=O [BP1.4^Ac, Ac-RSQERFR8DLWKRLS5RR-NH2] (Ac-RSQERF[R8]DLWKRL[S5]RR-NH2; staple 7-14) | 7.7 | –
CC(=O)N[C@@H](CC(C)C)C(=O)N[C@@H](CCCNC(=N)N)C(=O)N[C@@H](CCCNC(=N)N)C(=O)N[C@@H](CCC(=O)O)C(=O)N[C@H](C(=O)N[C@@H](Cc1ccccc1)C(=O)N[C@]1(C)CCCCCCC=CCCC[C@@](C)(C(=O)N[C@@H](CCCNC(=N)N)C(=O)N[C@@H](CC(N)=O)C(N)=O)NC(=O)[C@H](CC(C)C)NC(=O)[C@H](CCCNC(=N)N)NC(=O)[C@H](CCCCN)NC(=O)[C@H](Cc2c[nH]c3ccccc23)NC(=O)[C@H](CCCNC(=N)N)NC(=O)[C@H](CC(=O)O)NC1=O)[C@@H](C)O [BP1.5^Ac, Ac-LRRETFR8DRWKRLS5RN-NH2] (Ac-LRRETF[R8]DRWKRL[S5]RN-NH2; staple 7-14) | 7.7 | –
COc1ccc(C2=N[C@@H](c3ccc(Cl)cc3)[C@@H](c3ccc(Cl)cc3)N2C(=O)N2CCNC(=O)C2)c(OC(C)C)c1 [Nutlin-3a, reference compound] | – | EC50 ([1]; 24 hours in Opti-MEM, N-acetylated peptides, read-out: EC50, decrease in SJSA-1 cell viability): 22.8 µM; EC50 [2]: ~7 µM
Ac-LSQETFR8DLWKLLS5EN-NH2 (Ac-LSQETF[R8]DLWKLL[S5]EN-NH2; staple 7-14) [SAH-p53-4, reference compound] | – | effect on SJSA-1 cell viability (in words) ([1]; concentrations as high as 60 μM, 24 hours): no decrease in viability; ability to breach the plasma membrane as judged by flow cytometry (HeLa cells): fails to effectively breach the plasma membrane

Further lines, with some results ahead:

EC50 ([1]; 24 h) [µM] | Compound | other results
1.9 | CC(=O)N[C@@H](CCCNC(=N)N)C(=O)N[C@@H](CO)C(=O)N[C@@H](CCC(N)=O)C(=O)N[C@@H](CCCNC(=N)N)C(=O)N[C@@H](CCCNC(=N)N)C(=O)N[C@@H](Cc1ccccc1)C(=O)N[C@]1(C)CCCCCCC=CCCC[C@@](C)(C(=O)N[C@@H](CCC(=O)O)C(=O)N[C@@H](CC(N)=O)C(N)=O)NC(=O)[C@H](CC(C)C)NC(=O)[C@H](CC(C)C)NC(=O)[C@H](CCCNC(=N)N)NC(=O)[C@H](Cc2c[nH]c3ccccc23)NC(=O)[C@H](CC(=O)O)NC(=O)[C@H](CCCNC(=N)N)NC1=O [BP1.2^Ac, Ac-RSQRRFR8RDWRLLS5EN-NH2] (Ac-RSQRRF[R8]RDWRLL[S5]EN-NH2; staple 7-14) | –
4.8 | CC(=O)N[C@@H](CC(C)C)C(=O)N[C@@H](CO)C(=O)N[C@@H](CCC(N)=O)C(=O)N[C@@H](CCC(=O)O)C(=O)N[C@H](C(=O)N[C@@H](C)C(=O)N[C@]1(C)CCCCCCC=CCCC[C@@](C)(C(=O)N[C@@H](CCCNC(=N)N)C(=O)N[C@@H](CCCNC(=N)N)C(N)=O)NC(=O)[C@H](CC(C)C)NC(=O)[C@H](CCCNC(=N)N)NC(=O)[C@H](CCCNC(=N)N)NC(=O)[C@H](Cc2c[nH]c3ccccc23)NC(=O)[C@H](CC(C)C)NC(=O)[C@H](CCCNC(=N)N)NC1=O)[C@@H](C)O [BP1.6F19A^Ac, Ac-LSQETAR8RLWRRLS5RR-NH2] (Ac-LSQETA[R8]RLWRRL[S5]RR-NH2; staple 7-14) | –
1.9 | CC(=O)N[C@@H](CC(C)C)C(=O)N[C@@H](CO)C(=O)N[C@@H](CCC(N)=O)C(=O)N[C@@H](CCC(=O)O)C(=O)N[C@H](C(=O)N[C@@H](Cc1ccccc1)C(=O)N[C@]1(C)CCCCCCC=CCCC[C@@](C)(C(=O)N[C@@H](CCCNC(=N)N)C(=O)N[C@@H](CCCNC(=N)N)C(N)=O)NC(=O)[C@H](CC(C)C)NC(=O)[C@H](CCCNC(=N)N)NC(=O)[C@H](CCCNC(=N)N)NC(=O)[C@H](Cc2c[nH]c3ccccc23)NC(=O)[C@H](CC(C)C)NC(=O)[C@H](CCCNC(=N)N)NC1=O)[C@@H](C)O [BP1.6^Ac, Ac-LSQETFR8RLWRRLS5RR-NH2] (Ac-LSQETF[R8]RLWRRL[S5]RR-NH2; staple 7-14) | –

Reference: patent publication US11865181B2, “Peptidic materials that traffic efficiently to the cell cytosol and nucleus” (Yale University, priority 2017, dated 2024)
